{
  "source": "ChEMBL document CHEMBL5584341",
  "about": "“Discovery of Potent, Specific, and Orally Available NLRP3 Inflammasome Inhibitors Based on Pyridazine Scaffolds for the Treatment of Septic Shock and Peritonitis” (J Med Chem, 2024)",
  "key": {"Mus musculus [1]": {"test_system": "Mus musculus", "assay": "Inhibition of MSU crystal induced peritonitis in BALB/c mouse assessed as reduction in neutrophil recruitment at 50 to 100 mg/kg, ip pretreated with LPS for 3 hrs followed by compound addition prior to MSU stimulation for 6 hrs by ELISA", "format": "functional, organism-based", "details": "dose 50-100 mg/kg"}, "[2]": {"assay": "Metabolic stability in human liver microsomes assessed as half life at 10 uM […] in presence of NADPH by LC-MS/MS analysis", "format": "ADME, Microsome"}, "[3]": {"assay": "Inhibition of IL-1beta release in PMA-differentiated/ LPS and nigericin stimulated human THP-1 cells at 0.1 uM pretreated with LPS for 3 hrs followed by incubation with compound for 40 mins and later stimulated with nigericin for 40 mins by ELISA", "format": "functional", "details": "THP-1, 1.333 h, time 80 min"}, "[4]": {"molecular_target": "NACHT, LRR and PYD domains-containing protein 3 (Mus musculus) (UniProt Q8R4B8)", "sequence (Q8R4B8 whole entry, the tested form may be a part)": "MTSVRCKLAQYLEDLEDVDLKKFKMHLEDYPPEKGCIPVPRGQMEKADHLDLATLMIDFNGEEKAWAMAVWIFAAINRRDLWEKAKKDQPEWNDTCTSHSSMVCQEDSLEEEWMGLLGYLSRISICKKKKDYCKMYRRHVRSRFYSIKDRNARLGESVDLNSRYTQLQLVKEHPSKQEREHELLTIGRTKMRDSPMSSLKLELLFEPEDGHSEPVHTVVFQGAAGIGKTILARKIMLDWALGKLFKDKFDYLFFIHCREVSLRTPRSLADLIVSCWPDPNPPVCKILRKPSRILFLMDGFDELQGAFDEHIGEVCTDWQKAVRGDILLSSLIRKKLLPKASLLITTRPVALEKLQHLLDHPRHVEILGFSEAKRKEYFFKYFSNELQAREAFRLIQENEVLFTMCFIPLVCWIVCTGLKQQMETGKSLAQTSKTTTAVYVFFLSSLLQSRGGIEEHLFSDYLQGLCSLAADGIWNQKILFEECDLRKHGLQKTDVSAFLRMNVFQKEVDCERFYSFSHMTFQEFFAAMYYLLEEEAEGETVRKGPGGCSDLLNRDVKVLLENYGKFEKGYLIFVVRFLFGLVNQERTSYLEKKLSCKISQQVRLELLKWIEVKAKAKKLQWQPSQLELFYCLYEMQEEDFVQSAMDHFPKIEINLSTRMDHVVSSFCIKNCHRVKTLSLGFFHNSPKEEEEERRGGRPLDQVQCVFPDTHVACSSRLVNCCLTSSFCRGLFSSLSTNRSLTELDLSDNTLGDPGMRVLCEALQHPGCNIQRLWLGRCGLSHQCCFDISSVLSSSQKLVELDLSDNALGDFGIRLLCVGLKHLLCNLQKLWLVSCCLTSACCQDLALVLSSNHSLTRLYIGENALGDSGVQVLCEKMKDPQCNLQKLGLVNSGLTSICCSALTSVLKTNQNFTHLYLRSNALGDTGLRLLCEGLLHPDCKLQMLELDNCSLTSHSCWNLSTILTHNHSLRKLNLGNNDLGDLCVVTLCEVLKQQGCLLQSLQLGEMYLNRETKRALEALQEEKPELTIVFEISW", "assay": "Inhibition of NLRP3 inflammasome activation in LPS stimulated mouse BMDMs assessed as reduction in IL-1beta release at 2 to 31.25 nM pretreated with LPS for 3 hrs followed by compound addition for 40 mins prior to ATP stimulation for 1 hr by ELISA", "format": "cell-based", "details": "BMDM, dose 2-31.25 nM, time 100.0 min"}, "[5]": {"assay": "Half-life in BALB/c mouse at 5 mg/kg, po measured upto 24 hrs by LC-MS/MS analysis", "format": "ADME, organism-based", "details": "in vivo"}, "[6]": {"molecular_target": "NLR family CARD domain-containing protein 4 (Mus musculus) (UniProt Q3UP24)", "sequence (Q3UP24 whole entry, the tested form may be a part)": "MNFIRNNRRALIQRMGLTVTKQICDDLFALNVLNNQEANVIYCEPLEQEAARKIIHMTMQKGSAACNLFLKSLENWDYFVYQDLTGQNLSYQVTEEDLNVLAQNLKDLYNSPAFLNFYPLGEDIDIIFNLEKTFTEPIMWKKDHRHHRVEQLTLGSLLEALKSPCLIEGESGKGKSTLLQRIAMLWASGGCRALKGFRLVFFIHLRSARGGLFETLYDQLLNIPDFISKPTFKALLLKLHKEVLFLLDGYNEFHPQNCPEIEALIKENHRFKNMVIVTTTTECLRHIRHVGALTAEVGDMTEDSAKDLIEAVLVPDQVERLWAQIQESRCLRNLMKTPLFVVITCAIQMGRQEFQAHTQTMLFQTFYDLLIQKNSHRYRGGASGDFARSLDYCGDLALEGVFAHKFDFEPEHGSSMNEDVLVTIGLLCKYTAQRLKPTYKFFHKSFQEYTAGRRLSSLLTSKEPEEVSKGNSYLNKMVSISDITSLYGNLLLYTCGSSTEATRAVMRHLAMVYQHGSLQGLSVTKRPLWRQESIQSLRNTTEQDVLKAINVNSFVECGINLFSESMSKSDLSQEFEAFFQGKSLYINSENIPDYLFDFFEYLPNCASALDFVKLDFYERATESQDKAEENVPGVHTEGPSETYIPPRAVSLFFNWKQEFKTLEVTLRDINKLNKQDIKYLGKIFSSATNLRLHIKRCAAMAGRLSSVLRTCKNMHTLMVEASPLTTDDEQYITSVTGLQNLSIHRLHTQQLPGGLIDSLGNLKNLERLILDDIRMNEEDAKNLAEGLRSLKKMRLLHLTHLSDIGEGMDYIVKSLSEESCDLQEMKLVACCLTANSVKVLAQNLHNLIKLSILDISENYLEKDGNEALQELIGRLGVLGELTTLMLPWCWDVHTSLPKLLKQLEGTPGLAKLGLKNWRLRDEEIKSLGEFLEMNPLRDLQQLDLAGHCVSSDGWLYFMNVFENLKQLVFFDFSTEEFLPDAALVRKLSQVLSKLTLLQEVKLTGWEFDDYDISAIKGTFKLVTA", "assay": "Inhibition of flagellin stimulated NLRC4 inflammasome activation in mouse BMDMs assessed as reduction in IL-1beta secretion pretreated with LPS for 3 hrs followed by compound addition for 40 mins prior to flagellin stimulation for 6 hrs by Western blotting analysis", "format": "cell-based", "details": "BMDM, time 400.0 min"}, "[7]": {"molecular_target": "NACHT, LRR and PYD domains-containing protein 3 (Mus musculus) (UniProt Q8R4B8)", "assay": "Inhibition of NLRP3 inflammasome activation in mouse BMDMs assessed as effect on TNF-alpha production at 2 to 31.25 nM pretreated with compound for 40 mins followed by LPS/ nigericin stimulation", "format": "cell-based", "details": "BMDM, dose 2-31.25 nM"}, "NRK-49F": {"test_system": "NRK-49F", "assay": "Cytotoxicity against rat NRK-49F cells at 5 to 20 uM incubated for 72 hrs by MTT assay", "format": "toxicity, cell-based", "details": "dose 5-20 µM"}, "hERG (KCNH2)": {"molecular_target": "hERG (KCNH2) (Homo sapiens, UniProt Q12809)", "sequence (Q12809 whole entry)": "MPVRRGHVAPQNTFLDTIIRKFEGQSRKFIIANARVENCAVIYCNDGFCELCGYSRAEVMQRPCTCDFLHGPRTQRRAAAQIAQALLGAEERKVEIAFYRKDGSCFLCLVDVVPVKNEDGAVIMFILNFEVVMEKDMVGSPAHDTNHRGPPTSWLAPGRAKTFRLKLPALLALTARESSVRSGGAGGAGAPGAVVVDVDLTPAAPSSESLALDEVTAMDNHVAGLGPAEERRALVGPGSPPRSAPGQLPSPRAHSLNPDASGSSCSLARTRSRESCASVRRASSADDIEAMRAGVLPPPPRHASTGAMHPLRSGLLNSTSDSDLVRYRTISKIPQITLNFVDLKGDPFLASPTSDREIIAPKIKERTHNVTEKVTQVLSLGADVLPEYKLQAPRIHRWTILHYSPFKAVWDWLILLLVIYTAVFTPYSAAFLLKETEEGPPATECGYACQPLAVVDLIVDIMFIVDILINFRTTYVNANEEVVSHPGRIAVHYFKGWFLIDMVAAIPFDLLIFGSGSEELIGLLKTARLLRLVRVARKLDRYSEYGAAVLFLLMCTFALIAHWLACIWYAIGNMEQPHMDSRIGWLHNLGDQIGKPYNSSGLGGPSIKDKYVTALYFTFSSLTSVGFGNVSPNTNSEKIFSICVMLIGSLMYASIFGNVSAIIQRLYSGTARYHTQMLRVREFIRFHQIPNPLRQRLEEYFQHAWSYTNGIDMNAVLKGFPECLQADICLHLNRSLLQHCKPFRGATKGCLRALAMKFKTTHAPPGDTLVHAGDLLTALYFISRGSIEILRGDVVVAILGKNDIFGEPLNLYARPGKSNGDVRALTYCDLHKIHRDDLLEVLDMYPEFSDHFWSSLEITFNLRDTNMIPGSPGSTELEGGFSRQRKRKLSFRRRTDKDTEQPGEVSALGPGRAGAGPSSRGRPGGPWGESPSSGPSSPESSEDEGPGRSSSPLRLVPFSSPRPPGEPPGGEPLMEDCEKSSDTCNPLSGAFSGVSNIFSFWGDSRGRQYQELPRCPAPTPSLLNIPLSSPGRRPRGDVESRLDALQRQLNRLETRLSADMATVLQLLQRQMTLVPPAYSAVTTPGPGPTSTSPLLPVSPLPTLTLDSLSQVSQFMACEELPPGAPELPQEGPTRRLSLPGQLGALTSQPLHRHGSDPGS", "assay": "Inhibition of human ERG at 20 uM relative to control"}, "[8]": {"assay": "Metabolic stability in human liver microsomes assessed as intrinsic clearance per g protein at 10 uM […] in presence of NADPH by LC-MS/MS analysis", "format": "ADME, Microsome"}, "[9]": {"molecular_target": "NACHT, LRR and PYD domains-containing protein 3 (Mus musculus) (UniProt Q8R4B8)", "assay": "Inhibition of NLRP3 inflammasome activation in LPS/nigericin stimulated mouse BMDMs assessed as effect on NLRP3 expression pretreated with LPS for 3 hrs followed by compound addition for 40 mins prior to nigericin stimulation for 40 mins by Western blotting analysis", "format": "cell-based", "details": "BMDM, time 80.0 min"}, "[10]": {"molecular_target": "NACHT, LRR and PYD domains-containing protein 3 (Mus musculus) (UniProt Q8R4B8)", "assay": "Inhibition of NLRP3 inflammasome activation in LPS/nigericin stimulated mouse BMDMs assessed as reduction in IL-1beta release pretreated with LPS for 3 hrs followed by compound addition for 40 mins prior to nigericin stimulation for 40 mins by Western blotting analysis", "format": "cell-based", "details": "BMDM, time 80.0 min"}, "AML12": {"test_system": "AML12", "assay": "Cytotoxicity against mouse AML12 cells at 5 uM incubated for 72 hrs by MTT assay", "format": "toxicity, cell-based", "details": "aml12, 72 h"}, "Cytochrome P450 2C9": {"molecular_target": "Cytochrome P450 2C9 (Homo sapiens, UniProt P11712)", "sequence (P11712 whole entry)": "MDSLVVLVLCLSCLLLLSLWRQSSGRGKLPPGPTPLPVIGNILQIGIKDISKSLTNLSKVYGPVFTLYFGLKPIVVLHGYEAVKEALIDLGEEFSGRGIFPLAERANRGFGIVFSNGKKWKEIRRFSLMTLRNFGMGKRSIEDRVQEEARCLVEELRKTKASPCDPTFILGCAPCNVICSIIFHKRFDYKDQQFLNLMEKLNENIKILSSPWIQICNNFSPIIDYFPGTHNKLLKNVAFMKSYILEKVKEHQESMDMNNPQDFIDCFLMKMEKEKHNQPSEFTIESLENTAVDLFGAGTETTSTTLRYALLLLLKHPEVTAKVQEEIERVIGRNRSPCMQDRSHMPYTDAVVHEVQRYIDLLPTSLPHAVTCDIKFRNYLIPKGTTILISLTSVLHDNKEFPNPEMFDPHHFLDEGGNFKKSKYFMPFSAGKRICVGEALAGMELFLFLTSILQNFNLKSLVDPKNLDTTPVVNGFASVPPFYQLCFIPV", "assay": "Inhibition of human CYP2C9 upto 10 uM relative to control", "format": "ADME"}, "[11]": {"assay": "Tmax in BALB/c mouse at 5 mg/kg, po measured upto 24 hrs by LC-MS/MS analysis", "format": "ADME, organism-based", "details": "in vivo"}, "[12]": {"molecular_target": "NACHT, LRR and PYD domains-containing protein 3 (Mus musculus) (UniProt Q8R4B8)", "assay": "Inhibition of NLRP3 inflammasome activation in mouse BMDMs assessed as effect on pro-IL-1beta expression at 2 to 31.25 nM pretreated with compound for 40 mins followed by LPS/nigericin stimulation", "format": "cell-based", "details": "BMDM, dose 2-31.25 nM"}, "[13]": {"assay": "Half-life in BALB/c mouse at 5 mg/kg, iv measured upto 24 hrs by LC-MS/MS analysis", "format": "ADME, organism-based", "details": "in vivo"}, "[14]": {"molecular_target": "T1, Interferon-inducible protein AIM2 (Mus musculus) (UniProt Q91VJ1)", "T1 sequence (whole entry)": "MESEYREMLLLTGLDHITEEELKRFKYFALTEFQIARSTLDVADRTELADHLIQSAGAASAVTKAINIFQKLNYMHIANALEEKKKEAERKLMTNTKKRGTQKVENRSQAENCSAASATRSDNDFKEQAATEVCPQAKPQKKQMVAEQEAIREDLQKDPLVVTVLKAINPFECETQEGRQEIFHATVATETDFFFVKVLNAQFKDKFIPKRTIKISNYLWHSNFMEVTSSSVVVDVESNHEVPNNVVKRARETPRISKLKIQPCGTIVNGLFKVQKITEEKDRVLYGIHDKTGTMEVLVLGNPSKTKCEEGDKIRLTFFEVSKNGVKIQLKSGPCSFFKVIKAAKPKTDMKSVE", "assay": "Inhibition of poly dA:dT stimulated AIM2 inflammasome activation in mouse BMDMs assessed as reduction in IL-1beta secretion at 0.1 to 10 uM pretreated with LPS for 3 hrs followed by compound addition for 40 mins prior to poly dA:dT stimulation for 6 hrs by ELISA", "format": "cell-based", "details": "BMDM, dose 0.1-10 µM, time 400.0 min"}, "LX-2": {"test_system": "LX-2", "assay": "Cytotoxicity against human LX-2 cells at 20 uM incubated for 72 hrs by MTT assay", "format": "toxicity, cell-based", "details": "lx-2, 72 h"}, "[15]": {"assay": "Inhibition of IL-1beta release in PMA-differentiated/ LPS and nigericin stimulated human THP-1 cells at 0.5 uM pretreated with LPS for 3 hrs followed by incubation with compound for 40 mins and later stimulated with nigericin for 40 mins by ELISA", "format": "functional", "details": "THP-1, 1.333 h, time 80 min"}, "Cytochrome P450 2D6": {"molecular_target": "Cytochrome P450 2D6 (Homo sapiens, UniProt P10635)", "sequence (P10635 whole entry)": "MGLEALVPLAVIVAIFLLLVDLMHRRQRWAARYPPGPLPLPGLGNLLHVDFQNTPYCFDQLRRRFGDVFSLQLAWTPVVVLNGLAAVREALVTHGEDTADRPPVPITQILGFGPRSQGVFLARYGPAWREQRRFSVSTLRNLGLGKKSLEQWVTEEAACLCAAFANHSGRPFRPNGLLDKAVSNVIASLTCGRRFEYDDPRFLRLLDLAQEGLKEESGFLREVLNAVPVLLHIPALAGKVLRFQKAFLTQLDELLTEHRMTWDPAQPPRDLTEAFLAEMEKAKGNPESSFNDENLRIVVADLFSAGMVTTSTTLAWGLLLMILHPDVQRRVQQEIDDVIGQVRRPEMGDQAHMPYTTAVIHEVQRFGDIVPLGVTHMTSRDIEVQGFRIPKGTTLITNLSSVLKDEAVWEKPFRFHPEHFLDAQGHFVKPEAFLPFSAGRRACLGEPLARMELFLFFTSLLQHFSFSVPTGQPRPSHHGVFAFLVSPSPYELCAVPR", "assay": "Inhibition of human CYP2D6 at 10 uM relative to control", "format": "ADME"}, "[16]": {"assay": "Oral bioavailability in BALB/c mouse at 5 mg/kg measured upto 24 hrs by LC-MS/MS analysis", "format": "ADME, organism-based", "details": "in vivo"}, "[17]": {"molecular_target": "NACHT, LRR and PYD domains-containing protein 3 (Mus musculus) (UniProt Q8R4B8)", "assay": "Inhibition of NLRP3 inflammasome activation in LPS/nigericin stimulated mouse BMDMs assessed as reduction in caspase-1 release pretreated with LPS for 3 hrs followed by compound addition for 40 mins prior to nigericin stimulation for 40 mins by Western blotting analysis", "format": "cell-based", "details": "BMDM, time 80.0 min"}, "[18]": {"assay": "Tmax in BALB/c mouse at 5 mg/kg, iv measured upto 24 hrs by LC-MS/MS analysis", "format": "ADME, organism-based", "details": "in vivo"}, "BMDM": {"test_system": "BMDM", "assay": "Reduction in LDH release in LPS/nigericin stimulated mouse BMDMs at 5 to 80 nM", "format": "functional, cell-based", "details": "dose 5-80 nM"}, "Mus musculus [19]": {"test_system": "Mus musculus", "assay": "Inhibition of MSU crystal induced peritonitis in BALB/c mouse assessed as reduction in serum IL-1beta level at 50 to 100 mg/kg, ip pretreated with LPS for 3 hrs followed by compound addition prior to MSU stimulation for 6 hrs by ELISA", "format": "functional, organism-based", "details": "dose 50-100 mg/kg"}, "[20]": {"molecular_target": "T1, Interferon-inducible protein AIM2 (Mus musculus)", "assay": "Inhibition of poly dA:dT stimulated AIM2 inflammasome activation in mouse BMDMs assessed as reduction in IL-1beta secretion pretreated with LPS for 3 hrs followed by compound addition for 40 mins prior to poly dA:dT stimulation for 6 hrs by Western blotting analysis", "format": "cell-based", "details": "BMDM, time 400.0 min"}, "THP-1": {"test_system": "THP-1", "assay": "Inhibition of nigericin induced ASC oligomerization in PMA differentiated human THP-1 cells at 5 to 80 nM pretreated compound for 40 mins followed by nigericin stimulation by immunofluorescence analysis", "format": "functional, cell-based", "details": "dose 5-80 nM"}},
  "note": "Activity calls are given as the source filed them. No cut-off for these calls is given here.",
  "data": [
    {"smiles": "OCCN1CCC[C@@H](Nc2nnc(-c3ccc4occc4c3O)c3c2C2CCC3CC2)C1", "values": [
      {"measurement": "inhibition", "setting": "Mus musculus [1]", "result": "Active"},
      {"measurement": "half-life at 10 µM", "setting": "[2]", "result": "> 2", "unit": "h"},
      {"measurement": "inhibition at 0.1 µM", "setting": "[3]", "result": 98.9, "unit": "%"},
      {"measurement": "inhibition", "setting": "[4]", "result": "Active"},
      {"measurement": "half-life", "setting": "[5]", "result": 4.74, "unit": "h"},
      {"measurement": "inhibition", "setting": "[6]", "result": "inactive"},
      {"measurement": "inhibition", "setting": "[7]", "result": "inactive"},
      {"measurement": "Activity", "setting": "NRK-49F", "result": "Non-Toxic"},
      {"measurement": "inhibition at 20 µM", "setting": "hERG (KCNH2)", "result": 49.1, "unit": "%"},
      {"measurement": "intrinsic clearance", "setting": "[8]", "result": "< 12", "unit": "mL/min"},
      {"measurement": "inhibition", "setting": "[9]", "result": "inactive"},
      {"measurement": "inhibition", "setting": "[10]", "result": "Dose-Dependent Effect"},
      {"measurement": "Activity", "setting": "AML12", "result": "Non-Toxic"},
      {"measurement": "inhibition (INH)", "setting": "Cytochrome P450 2C9", "result": "Not Active"},
      {"measurement": "Tmax", "setting": "[11]", "result": 1.83, "unit": "h"},
      {"measurement": "inhibition", "setting": "[12]", "result": "inactive"},
      {"measurement": "half-life", "setting": "[13]", "result": 3.51, "unit": "h"},
      {"measurement": "inhibition", "setting": "[14]", "result": "inactive"},
      {"measurement": "Activity", "setting": "LX-2", "result": "Toxic"},
      {"measurement": "inhibition at 0.5 µM", "setting": "[15]", "result": 98.9, "unit": "%"},
      {"measurement": "inhibition (INH)", "setting": "Cytochrome P450 2D6", "result": "Active"},
      {"measurement": "bioavailability", "setting": "[16]", "result": 62, "unit": "%"},
      {"measurement": "inhibition", "setting": "[17]", "result": "Dose-Dependent Effect"},
      {"measurement": "Tmax", "setting": "[18]", "result": 4.98, "unit": "min"},
      {"measurement": "Activity", "setting": "BMDM", "result": "Dose-Dependent Effect"},
      {"measurement": "inhibition", "setting": "Mus musculus [19]", "result": "Active"},
      {"measurement": "inhibition", "setting": "[20]", "result": "inactive"},
      {"measurement": "inhibition", "setting": "THP-1", "result": "Active"}
    ]}
  ]
}
